Laboratory results published in PubChem BioAssay (NCI).
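Results reflect a 48-hour exposure of cells in 96-well plates to compound at five concentrations. Definition used: TGI = concentration required for complete inhibition of growth.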

What was measured:
Assay in all cases: DTP human tumour cell line panel, 48 h
BT-549 breast = system: BT-549 breast
CAKI-1 renal = system: CAKI-1 renal
HCC-2998 colon = system: HCC-2998 colon
HCT-15 colon = system: HCT-15 colon
HL-60(TB) leukemia = system: HL-60(TB) leukemia
HS 578T breast = system: HS 578T breast
KM12 colon = system: KM12 colon
LOX IMVI melanoma = system: LOX IMVI melanoma
MCF7 breast = system: MCF7 breast
NCI-H23 lung = system: NCI-H23 lung
NCI-H460 lung = system: NCI-H460 lung
NCI/ADR-RES ovarian = system: NCI/ADR-RES ovarian
OVCAR-5 ovarian = system: OVCAR-5 ovarian
SF-268 CNS = system: SF-268 CNS
SF-295 CNS = system: SF-295 CNS
SK-MEL-2 melanoma = system: SK-MEL-2 melanoma
SK-MEL-5 melanoma = system: SK-MEL-5 melanoma
SNB-75 CNS = system: SNB-75 CNS
UO-31 renal = system: UO-31 renal

Row | Compound | TGI (BT-549 breast) [µM] | TGI (CAKI-1 renal) [µM] | TGI (HCC-2998 colon) [µM] | TGI (HCT-15 colon) [µM] | TGI (HL-60(TB) leukemia) [µM] | TGI (HS 578T breast) [µM] | TGI (KM12 colon) [µM] | TGI (LOX IMVI melanoma) [µM] | TGI (MCF7 breast) [µM] | TGI (NCI-H23 lung) [µM] | TGI (NCI-H460 lung) [µM] | TGI (NCI/ADR-RES ovarian) [µM] | TGI (OVCAR-5 ovarian) [µM] | TGI (SF-268 CNS) [µM] | TGI (SF-295 CNS) [µM] | TGI (SK-MEL-2 melanoma) [µM] | TGI (SK-MEL-5 melanoma) [µM] | TGI (SNB-75 CNS) [µM] | TGI (UO-31 renal) [µM]
1 | O=C1C=CC(=O)c2c1ccc1c3ccccc3n(-c3cccc([N+](=O)[O-])c3)c21 | 3.31 | 5.48 | > 10 | 7.09 | 1.29 | > 10 | > 10 | > 10 | > 5.93 | 6.57 | > 10 | > 10 | > 10 | > 10 | > 10 | > 10 | > 10 | > 10 | > 10
2 | Nc1nc(Cl)c(N)c(NCC2(CO)CCCC2)n1 | > 100 | > 100 | > 100 | > 100 | > 100 | > 100 | > 100 | > 100 | > 100 |  | > 100 | > 100 | > 100 | > 100 | > 100 | > 100 | > 100 | > 100 | > 100
3 | CC(C(=O)OCc1ccccc1)(c1ccco1)N1C(=O)OC(c2ccccc2)C1c1ccccc1 (stereo not drawn) | > 100 | > 100 | > 100 | > 100 | > 100 | > 100 | > 100 | > 100 | > 100 | > 100 | > 100 | > 100 | > 100 | > 100 | > 100 | > 100 | > 100 | > 100 | > 100
4 | COC(=O)CC1C=CC(C)(OC)OO1 (stereo not drawn) | > 100 | > 100 | > 100 | > 100 | > 100 | > 100 | > 100 | > 100 | > 100 | > 100 | 24.4 | > 100 | > 100 | > 100 | > 100 | > 100 | > 100 | > 100 | > 100
5 | COC(=O)C1=C(C(=O)Nc2cccnc2Cl)N(c2ccc(OC)cc2[N+](=O)[O-])C(c2ccc(C)cc2)=CC1c1ccc(OC)cc1OC (stereo not drawn) | > 100 | > 100 | 27.8 | 49.8 | 52.5 | 67.4 | 16.3 | 17 | 22.4 | > 85 | > 79.3 | 47.5 | > 84.9 | 78.5 | > 100 | 65 | > 73.3 | 72.3 | > 76.2
6 | O=C(/C=C/c1ccc(OCc2cccc(Cl)c2)cc1)NO | 80.7 | 34.2 | 31 | 20.8 | 35.9 | > 100 | 43 | 24.4 | > 100 | 26 | 41.9 | 23.3 | 71.5 | > 100 | 50.1 | 53.7 | 45.7 | > 100 | 18.7
7 | CCC(C)C1NC(=O)C(NC(=O)c2c3[nH]c4c(C(=O)NC5C(=O)NC(C(C)CC)C(=O)N6CCCC6C(=O)N(C)CC(=O)N(C)C(C(C)C)C(=O)OC5C)ccc(C)c4oc-3c(C)c(=O)c2=O)C(C)OC(=O)C(C(C)C)N(C)C(=O)CN(C)C(=O)C2CCCN2C1=O (stereo not drawn) | > 72.4 | > 91.2 | 27.7 | > 100 | 52.2 | 37.8 | > 56.7 | > 53.4 | > 33 | 45.3 | 8.45 | > 100 | > 100 | 97.4 | > 93 | 17.2 | > 100 | 32.9 | > 77
8 | O=C(/N=C/c1c(O)c2ccccc2oc1=O)Oc1ccccc1 | 81 | 94.6 | > 100 | > 100 | > 100 | 32.1 | > 100 | 80.9 | > 100 | 68.5 | > 100 | 95.8 | > 100 |  | > 100 | 36.1 | > 100 | 68.4 | 63.6
9 | COC1=CC2C(c3cc4ccccc4n3S(=O)(=O)c3ccccc3)CC1CN2C(=O)OCc1ccccc1 (stereo not drawn) | 75.1 | > 100 | > 100 | > 100 | 41.9 | > 100 | > 100 | 57.7 | > 100 | > 100 | > 100 | > 100 | 45.2 |  | > 100 | 54.2 | 58.9 | 33.7 | > 100
